This is an account of results in patent US20070112044A1, “Thiadiazoline derivative” (Kyowa Hakko Kogyo Co., Ltd., priority 2003, published 2007).

Usually IC50 stands for the point on the concentration scale where inhibition reaches its midpoint. For orientation: GI50 means the concentration at which growth is held to half of that of the control.

Like-named read-outs stand apart in the source and are kept apart here.

Assay [1] deals with T1, recombinant human Eg5 motor domain protein (Homo sapiens, UniProt P52732).
T1 construct: A plasmid expressing the motor domain of human Eg5 was constructed; made in house; host or cells: Escherichia coli BL21 (DE3)
T1 sequence (P52732 18-359 limits assumed): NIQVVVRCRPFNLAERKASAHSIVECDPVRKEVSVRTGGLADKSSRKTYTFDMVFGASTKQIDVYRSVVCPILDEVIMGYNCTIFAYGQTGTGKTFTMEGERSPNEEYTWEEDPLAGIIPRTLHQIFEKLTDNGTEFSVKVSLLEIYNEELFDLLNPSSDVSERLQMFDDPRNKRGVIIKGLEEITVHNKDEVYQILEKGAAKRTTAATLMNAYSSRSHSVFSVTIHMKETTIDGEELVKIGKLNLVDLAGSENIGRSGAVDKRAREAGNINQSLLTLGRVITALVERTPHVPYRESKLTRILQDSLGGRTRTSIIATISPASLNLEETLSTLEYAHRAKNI
The experiment in a line: Eg5 enzyme inhibition test (2), ATPase activity. It is filed as biochemical. As to conditions: 30° C. for 30 minutes, concentration-dependent inhibition. The protocol: A recombinant human Eg5 motor domain protein was prepared by referring to the literature [Biochemistry, Vol. 35, p. 2365 (1996)]. A plasmid expressing the motor domain of human Eg5 was constructed, and transformed into Escherichia coli BL21 (DE3). The transformant was cultured at 25° C, and when the OD600 reached 0.74, isopropyl-β-D-thiogalactoside was added at a final concentration of 0.5 mmol/L. The transformant was further cultured for 4 hours, and then the culture medium was centrifuged to collect the cells. The cells were suspended in a buffer and ultrasonicated, and then the sonicated solution was centrifuged to recover the supernatant. The supernatant was purified by cation exchange column chromatography to obtain a partially purified sample. Furthermore, the partially purified sample was purified by gel filtration column chromatography to obtain a finally purified sample.
Measurement of the ATPase activity of Eg5 was carried out by referring to the literatures [EMBO Journal, Vol. 13, p. 751 (1994); Proc. Natl. Acad. Sci. USA, Vol. 89, p. 4884 (1992)]. The following two kinds of solutions were prepared: Solution A consisting of 25 mmol/L piperazine N,N′-bis(ethanesulfonate) (PIPES)/KOH (pH 6.8), 1 mmol/L ethylene glycol-bis(2-aminoethyl ether)tetraacetic acid (EGTA), 2 mmol/L MgCl2, 1 mmol/L dithiothreitol (DTT), 5 μmol/L paclitaxel, 167 μg/mL bovine serum albumin (BSA), 41.7 μg/mL tubulin (Cytoskeleton, Catalog No. TL238), 333 μmol/L MESG substrate (2-amino-6-mercapto-7-methylpurine riboside) (Molecular Probes, Catalog Number E-6646), 1.67 U/mL purine nucleoside phosphorylase (Molecular Probe, Catalog No. E-6646) and 1.33 μg/mL of the human Eg5 motor domain purified sample, and Solution B consisting of 25 mmol/L piperazine N,N′-bis(ethanesulfonate) (PIPES)/KOH (pH 6.8), 1 mmol/L ethylene glycol-bis(2-aminoethyl ether)tetraacetic acid (EGTA), 2 mmol/L MgCl2, 1 mmol/L dithiothreitol (DTT), 5 μmol/L paclitaxel and 2.5 mmol/L ATP. Solution A was dispensed into each well of a 96-well plate as 45 μL portions. Solution B was used to serially dilute a test compound. The diluted test compound solutions in a volume of 30 μL were mixed with Solution A added beforehand in each well of the 96-well plate to start the enzymatic reaction. The enzymatic reaction was performed at 30° C. for 30 minutes. Absorbance at 360 nm, which serves as an index of the ATPase activity, was measured using a plate reader (Molecular Device, SpectraMax 340PC^384). The absorbance observed in the presence of Eg5 and absence of the test compound was defined 100%, and the absorbance observed in the absence of both Eg5 and the test compound was defined 0%. The relative activity was calculated to calculate IC50 value.

Assay [2] deals with HCT 116 human colon carcinoma cells. As to the kind of experiment: Antiproliferative activity against HCT 116 human colon carcinoma cells (XTT). It is filed as cell-based. The protocol:
HCT 116 cells (ATCC No.: CCL-247) were placed on a 96-well microtiter plate (Nunc, 167008) at a density of 1×10^3 cells/well. The plate was incubated in a 5% CO2 incubator at 37° C. for 24 hours, and then to the plate was added test compounds diluted stepwise to 100 μL/well in total, and the plate was further incubated in a 5% CO2 incubator at 37° C. for 72 hours. To the culture medium, the XTT (sodium 3′-[1-(phenylaminocarbonyl)-3,4-tetrazolium]-bis(4-methoxy-6-nitro)benzenesulfonic acid hydrate) labeling mixture (Roche Diagnostics, 1465015) was dispensed in 50 μL/well portions, then the plate was incubated in a 5% CO2 incubator at 37° C. for 1 hour, and the absorbance was measured at 490 nm and 655 nm with a microplate spectrophotometer (Bio-Rad, Model 550). The inhibitory activity against cell proliferation was shown as GI50, a concentration of compound at which induces 50% inhibition of cell proliferation.
GI50 calculation method: The value (difference in absorbance) was calculated by subtracting the absorbance at 655 nm from the absorbance at 490 nm of each well. The difference in absorbance obtained from the cells untreated with a test compound was defined as 100%, and compared with the difference in absorbance obtained from the cells treated with the solution of the compound in the known concentration, and thereby the concentration of the compound of 50% inhibition against cell proliferation was calculated to obtain GI50.
On the technique in general: Formazan colour is commonly taken as a measure of viable cells.

The mark [3] stands for this setting: HCT 116 cells, 72 hours incubation, XTT, 50% inhibition of cell proliferation, read-out: GI50.

As for `CC(=O)N1N=C(c2ccccc2F)SC1(CCNC(=O)CCCN(C)C)c1ccccc1` (stereo not drawn) [Compound 61], the half-inhibitory concentration (IC50) in assay [1] was no more than 10 µM. In assay [2] (setting [3]), the GI50 was less than 0.1 µM.
In the same order, the values of `CC(=O)N1N=C(c2ccccc2F)SC1(C)c1ccccc1` (stereo not drawn) [Compound 22] are no more than 10 µM and 0.083 µM.
With `CC(=O)N1N=C(C#CC(C)(C)C)SC1(CNS(C)(=O)=O)c1ccccc1` (stereo not drawn) [Compound 20], the IC50 in assay [1] was no more than 10 µM. In assay [2] (setting [3]), the 50% growth inhibitory concentration (GI50) was found to be 0.2 µM.
The like results for `CC(=O)N1N=C(c2cccn2C(=O)OC(C)(C)C)SC1(C)c1ccccc1` (stereo not drawn) [Compound 5] were, in that order, no more than 10 µM and 0.17 µM.
Consider `CC(=O)N1N=C(c2ccccc2F)SC1(CCCN1CCN(C)CC1)c1ccccc1` (stereo not drawn) [Compound 62], for which, in assay [1], the IC50 was no more than 10 µM. Besides, the GI50 in assay [2] (setting [3]) is 0.16 µM.
The like results for `CC(=O)N1N=C(C(=O)NC(C)(C)C)SC1(CNS(=O)(=O)CCN(C)C)c1ccccc1` (stereo not drawn) [Compound 68] were, in that order, no more than 10 µM and 0.19 µM.
Turning to `CC(=O)N1N=C(c2ccccc2F)SC1(CNS(=O)(=O)CCN)c1ccccc1` (stereo not drawn) [Compound 49], the IC50 in assay [1] was no more than 10 µM. Also, the GI50 in assay [2] (setting [3]) is less than 0.1 µM.
`CC(=O)N1N=C(c2ccccc2)SC1(CNS(C)(=O)=O)c1ccccc1` (stereo not drawn) [Compound 10]: the half-inhibitory concentration (IC50) in assay [1] was no more than 10 µM. Besides, in assay [2] (setting [3]), the GI50 was 0.18 µM.
Take `CC(=O)N1N=C(c2ccccc2F)SC1(CNC(=O)CN)c1ccccc1` (stereo not drawn) [Compound 55]: the IC50 in assay [1] is no more than 10 µM. Moreover, the GI50 in assay [2] (setting [3]) is less than 0.1 µM.
In the same order, the values of `CC(=O)N1N=C(C(=O)NC(C)(C)C)SC1(C)c1ccccc1` (stereo not drawn) [Compound 44] are no more than 10 µM and 0.41 µM.
The like results for `CC(=O)N1N=C(c2cccc(F)c2)SC1(C)c1ccccc1` (stereo not drawn) [Compound 24] were, in that order, no more than 10 µM and 0.22 µM.
As to `CC(=O)N1N=C(c2ccco2)SC1(C)c1ccccc1` (stereo not drawn) [Compound 1], in assay [1], the IC50 is no more than 10 µM. The 50% growth inhibitory concentration (GI50) in assay [2] (HCT-116, 72 h) turned out to be 0.53 µM.
